Test results published in the supplement of paper PMC10307832.

The cell lines below were run with CC1=NN=C(O1)C2=NN=C(C=C2)N3CCC(CC3)OC4=C(C=CC(=C4)F)Cl + CCNC(=O)c1noc(-c2cc(C(C)C)c(O)cc2O)c1-c1ccc(CN2CCOCC2)cc1 [Luminespib] (partner 0.01 µM) (assay: relative viability (nuclei count vs DMSO), 5 days (fraction); higher = more cells survive). Conditions: first compound 0.253 µM.
In short: (§1)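 Each reported value is a median over duplicate plates. It expresses relative viability: treated-well nuclei count divided by vehicle-well nuclei count. Lung cancer cell lines in 1536-well plates were dosed by pin tool a day after seeding, alone with one drug or with a fixed anchor-drug dose plus five library-drug doses (not always all listed) in √10 steps, and nuclei were counted after 5 days.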

Cell Line	relative viability
NCI-H522	1.2
NCI-H1623	0.465
SK-LU-1	0.218
NCI-H1792	0.34
NCI-H2087	0.17
NCI-H596	0.938
NCI-H1355	0.538
SW 1573	0.184
LCLC-103H	0.678
NCI-H727	0.531
NCI-H2405	0.558
EMC-BAC-2	0.987
NCI-H23	0.222
NCI-H1755	0.376
NCI-H838	0.257
LK-2	0.2
NCI-H2342	0.501

Cell Line	relative viability
SK-MES-1	0.726
H3255	0.82
COR-L23	0.587
COR-L 105	0.622
LU99A	0.224
ChaGo-K-1	0.426
NCI-H2170	0.468
NCI-H460	0.0224
HOP-62	0.63
HCC-44	0.739
LXF-289	0.477
BEN	0.47
HARA	0.234
NCI-H647	0.171
LCLC-97TM1	0.394
NCI-H1563	0.488
ABC-1	0.35

Same assay, conditions: first compound 0.8 µM

Cell Line	relative viability
NCI-H522	0.989
NCI-H1623	0.52
NCI-H1792	0.38
NCI-H2087	0.144
NCI-H596	0.849
NCI-H1355	0.582
SW 1573	0.204
LCLC-103H	0.74
NCI-H2405	0.434
EMC-BAC-2	0.977
NCI-H23	0.199
NCI-H1755	0.337
NCI-H838	0.255
LK-2	0.159
NCI-H2347	0.433
NCI-H2342	0.528
SK-MES-1	0.725

Cell Line	relative viability
H3255	0.737
COR-L23	0.647
COR-L 105	0.812
LU99A	0.227
ChaGo-K-1	0.532
NCI-H2170	0.475
NCI-H460	0.0328
HOP-62	0.638
HCC-44	0.812
LXF-289	0.378
BEN	0.459
HARA	0.204
NCI-H647	0.128
LCLC-97TM1	0.364
NCI-H1563	0.52
NCI-H1650	0.194
ABC-1	0.362

Same assay, conditions: first compound 2.53 µM

Cell Line	relative viability
NCI-H522	1.15
NCI-H1623	0.486
SK-LU-1	0.207
NCI-H1792	0.419
NCI-H2087	0.151
NCI-H596	0.945
NCI-H1355	0.601
SW 1573	0.264
LCLC-103H	0.537
NCI-H727	0.6
NCI-H2405	0.534
EMC-BAC-2	1.03
NCI-H23	0.229
NCI-H1755	0.354
NCI-H838	0.348
LK-2	0.176
NCI-H2347	0.421
NCI-H2342	0.484
SK-MES-1	0.631

Cell Line	relative viability
H3255	0.727
COR-L23	0.458
COR-L 105	0.691
LU99A	0.246
ChaGo-K-1	0.56
NCI-H2170	0.353
NCI-H460	0.0243
HOP-62	0.697
HCC-44	0.725
SW 900	0.175
LXF-289	0.547
BEN	0.312
HARA	0.202
NCI-H647	0.16
LCLC-97TM1	0.336
NCI-H1563	0.519
NCI-H1650	0.217
ABC-1	0.207

Same assay, conditions: first compound 8 µM

Cell Line	relative viability
NCI-H522	1.22
NCI-H1623	0.433
SK-LU-1	0.185
NCI-H1792	0.431
NCI-H2087	0.164
NCI-H596	0.889
NCI-H1355	0.623
SW 1573	0.2
LCLC-103H	0.582
NCI-H727	0.629
NCI-H2405	0.612
EMC-BAC-2	0.917
NCI-H23	0.189
NCI-H1755	0.418
NCI-H838	0.226
LK-2	0.182
NCI-H2347	0.459
NCI-H2342	0.476
SK-MES-1	0.547

Cell Line	relative viability
H3255	0.66
COR-L23	0.474
COR-L 105	0.625
LU99A	0.199
ChaGo-K-1	0.541
NCI-H2170	0.311
NCI-H460	0.0233
HOP-62	0.634
HCC-44	0.731
SW 900	0.175
LXF-289	0.395
BEN	0.18
HARA	0.184
NCI-H647	0.263
LCLC-97TM1	0.346
NCI-H1563	0.532
NCI-H1650	0.205
ABC-1	0.262

The cell lines below were run with CC(C)C[C@@H](C(=O)N[C@H](C(=O)OC1CCCC1)c1ccccc1)[C@H](O)C(=O)NO [Tosedostat] + Cc1nc(NC(=O)N2CCC[C@H]2C(N)=O)sc1-c1ccnc(C(C)(C)C(F)(F)F)c1 [Alpelisib] (partner 2 µM) in the same assay as above. Conditions: first compound 0.02 µM.
In short: as §1

Cell Line	relative viability
SK-LU-1	1.19
NCI-H1703	0.265
EBC-1	0.771
NCI-H1792	0.761
NCI-H2087	1.21
NCI-H596	0.48
NCI-H1355	0.704
SW 1573	0.578
LCLC-103H	0.896
NCI-H727	0.665
NCI-H2405	0.78
EMC-BAC-2	0.722
NCI-H23	0.615
Calu-6	1.18
HCC-366	0.331
NCI-H1755	0.941
NCI-H838	1.03
LK-2	1.55
NCI-H2347	1.14
SK-MES-1	0.814

Cell Line	relative viability
H3255	0.666
COR-L23	0.871
COR-L 105	0.904
IA-LM	0.735
LU99A	0.633
NCI-H2170	0.742
NCI-H460	0.535
HOP-62	0.92
HCC-44	0.684
A549	0.753
LXF-289	1.03
BEN	1.09
HARA	0.887
HCC-78	0.294
NCI-H647	1.3
LCLC-97TM1	0.199
NCI-H1299	1.13
NCI-H1563	0.879
ABC-1	1.05

Same assay, conditions: first compound 0.06325 µM

Cell Line	relative viability
SK-LU-1	0.981
NCI-H1703	0.274
EBC-1	0.87
NCI-H1792	0.745
NCI-H2087	1.08
NCI-H596	0.51
NCI-H1355	0.798
SW 1573	0.76
LCLC-103H	0.95
NCI-H727	0.569
NCI-H2405	0.804
EMC-BAC-2	0.725
NCI-H23	0.745
Calu-6	0.883
HCC-366	0.357
NCI-H1755	0.9
NCI-H838	0.903
LK-2	1.03
NCI-H2347	0.971

Cell Line	relative viability
SK-MES-1	1
H3255	0.642
COR-L23	0.727
COR-L 105	0.849
IA-LM	0.845
LU99A	0.445
NCI-H2170	0.829
NCI-H460	0.472
HOP-62	1.01
HCC-44	0.874
A549	0.714
LXF-289	1.05
BEN	1.01
HARA	0.839
HCC-78	0.338
NCI-H647	1.13
NCI-H1299	1.02
NCI-H1563	1
ABC-1	0.864

Same assay, conditions: first compound 0.2 µM

Cell Line	relative viability
SK-LU-1	0.772
NCI-H1703	0.302
EBC-1	0.711
NCI-H1792	0.649
NCI-H2087	1.21
NCI-H596	0.483
NCI-H1355	0.854
SW 1573	0.641
LCLC-103H	0.948
NCI-H727	0.472
NCI-H2405	0.829
EMC-BAC-2	0.73
NCI-H23	0.536
Calu-6	0.91
HCC-366	0.376
NCI-H1755	0.922
NCI-H838	1
LK-2	1.13
NCI-H2347	1.01

Cell Line	relative viability
SK-MES-1	0.832
H3255	0.589
COR-L23	0.746
COR-L 105	1.17
IA-LM	0.714
LU99A	0.501
NCI-H2170	0.835
NCI-H460	0.619
HOP-62	0.697
HCC-44	0.767
A549	0.683
LXF-289	1.03
BEN	1.15
HARA	0.875
HCC-78	0.257
NCI-H647	1.02
NCI-H1299	1.03
NCI-H1563	0.956
ABC-1	1.08

Same assay, conditions: first compound 0.6325 µM

Cell Line	relative viability
SK-LU-1	0.842
NCI-H1703	0.329
EBC-1	0.552
NCI-H1792	0.602
NCI-H2087	0.876
NCI-H596	0.619
NCI-H1355	0.667
SW 1573	0.588
LCLC-103H	1.11
NCI-H727	0.41
NCI-H2405	0.787
EMC-BAC-2	0.737
NCI-H23	0.513
Calu-6	0.689
HCC-366	0.382
NCI-H1755	0.864
NCI-H838	1.04
LK-2	1.27
NCI-H2347	1.02
SK-MES-1	0.802

Cell Line	relative viability
H3255	0.568
COR-L23	0.694
COR-L 105	0.901
IA-LM	0.656
LU99A	0.486
NCI-H2170	0.777
NCI-H460	0.689
HOP-62	0.984
HCC-44	0.886
A549	0.709
LXF-289	1.07
BEN	1.28
HARA	0.716
HCC-78	0.336
NCI-H647	1.09
LCLC-97TM1	0.247
NCI-H1299	1.03
NCI-H1563	1.16
ABC-1	0.843

Same assay, conditions: first compound 2 µM

Cell Line	relative viability
SK-LU-1	0.491
NCI-H1703	0.31
EBC-1	0.541
NCI-H1792	0.67
NCI-H2087	0.91
NCI-H596	0.552
NCI-H1355	0.688
SW 1573	0.567
LCLC-103H	1.07
NCI-H727	0.364
NCI-H2405	0.76
EMC-BAC-2	0.682
NCI-H23	0.538
Calu-6	0.597
HCC-366	0.342
NCI-H1755	0.883
NCI-H838	1.17
